Assay results: paper PMC8362065, “Easily Available, Amphiphilic Diiron Cyclopentadienyl Complexes Exhibit in Vitro Anticancer Activity in 2D and 3D Human Cancer Cells through Redox Modulation Triggered by CO Release” (Chemistry (Weinheim an Der Bergstrasse, Germany), 2021)
Marks after values point to notes of the source that are not given here.

What was measured:
[1] = Stability in cell culture medium (DMEM) at 37 °C by 1H NMR; format: physicochemical; settings: DMEM-d (6.6 % CD3OD)
Protocol: Next, the stability of the diiron compounds in a cell culture medium (DMEM) solution at 37 °C, over a shorter time range (24 h), was assessed by ^1H NMR.
Stability in water (D2O) and cell culture medium. The procedures are described in the Supporting Information, and data are collected in Table S3.
Table S3. Stability of diiron complexes in D2O, D2O/CD3OD, DMSO-d6/D2O and cell culture medium (DMEM-
d/CD3OD) solution at 37 °C calculated by 1H NMR (Me2SO2 internal standard).
% starting material (72 h) % starting material
Compound D O D O/CD OD DMSO-d /D O DMEM-d
[a] X = I for the stability in D 2O, X = CF3SO3 for the stability in cell culture medium. [b] Stability in D 2O and […]

[2] = tested on: Embryonic kidney HEK293 cells; test: MTT assay, noncancerous cell line; format: cell-based, human; settings: 72 h; for IC50: HEK293 noncancerous cells, MTT; for SI (selectivity index): IC50 in noncancerous HEK293 cells / average IC50 in cancer cells
Protocol: As one of the main drawbacks of chemotherapeutics is the toxic effect toward noncancerous cells, we measured the cytotoxicity of tested complexes against a noncancerous cell line (HEK293) and calculated the selectivity index (SI, defined as the ratio between the IC50 value in noncancerous cells and the corresponding average IC50 value related to cancer cells; Table 5).
Compounds [2B]BF4, [2C]CF3SO3, [2D]CF3SO3 and [3F]CF3SO3 were dissolved in water while the other compounds were dissolved in the minimum DMSO amount prior to cell culture testing. A calculated amount of the stock drug DMSO solution was added to the cell culture media to reach a final maximum DMSO concentration of 0.5 %, which had no effects on cell viability.
Cell cultures. Human colon (HCT‐15), pancreatic (PSN‐1) and breast (MCF‐7) carcinoma cell lines along with human melanoma cells (A375) were obtained from American Type Culture Collection (ATCC, Rockville, MD). Embryonic kidney HEK293 cells were obtained from the European Collection of Cell Cultures (ECACC, Salisbury, UK). Human ovarian 2008 cancer cells were kindly provided by Prof. G. Marverti (Dept. of Biomedical Science of Modena University, Italy). MCF‐7 ADR cells were kindly provided by Prof. N. Colabufo (Dept. Pharmacy, University of Bari, Italy). Cell lines were maintained in the logarithmic phase at 37 °C in a 5 % CO2 atmosphere using the following culture media containing 10 % fetal calf serum (Euroclone, Milan, Italy), antibiotics (50 units/mL penicillin and 50 μg/mL streptomycin) and 2 mM L‐glutamine: i) RPMI‐1640 medium (Euroclone, Milan, Italy) for PSN‐1, 2008, HCT‐15, MCF‐7 and MCF‐7 ADR cells; ii) DMEM for A375 and HEK293 cells.
MTT assay. The growth inhibitory effect towards tumour cells was evaluated by means of MTT assay as previously described.[57] Briefly, 3–8×10^3 cells/well, dependent upon the growth characteristics of the cell line, were seeded in 96‐well microplates in growth medium (100 μL). After 24 h, the medium was removed and replaced with a fresh one containing the compound to be studied at the appropriate concentration. Triplicate cultures were established for each treatment. After 24 or 72 h, each well was treated with 10 μL of a 5 mg/mL MTT saline solution, and following 5 h of incubation, 100 μL of a sodium dodecyl sulfate (SDS) solution in HCl 0.01 M were added. After an overnight incubation, cell growth inhibition was detected by measuring the absorbance of each well at 570 nm using a Bio‐Rad 680 microplate reader. Mean absorbance for each drug dose was expressed as a percentage of the control untreated well absorbance and plotted against drug concentration. IC50 values, the drug concentrations that reduce the mean absorbance at 570 nm to 50 % of those in the untreated control wells, were calculated by the four‐parameter logistic (4‐PL) model. Evaluation was based on means from at least four independent experiments.

[3] = target: T1, Lysozyme from chicken egg white (Gallus gallus, UniProt P00698); test: Reactivity with model protein lysozyme, ESI-MS; settings: 37 °C; for Reaction with lysozyme: compound/lysozyme 2 : 1, 24 h; for % Lysozyme methylation (alkylation): lysozyme:compound 1 : 2 molar ratio, 24 h, flow injection ESI-MS peak integrals
T1 construct: Lysozyme from chicken egg white (M=14 300 Da, 62971 Sigma‐Aldrich); purchased Sigma-Aldrich 62971; host or cells: chicken egg white (natural source)
Protocol: To gain insights into the reactivity of the diiron compounds with possible biomolecular targets, we selected lysozyme, a small model protein often used to test interactions with metal compounds.[36] Following 24 h incubation at 37 °C, diiron compounds/lysozyme solutions (2 : 1 molar ratio) in ammonium acetate were filtered and analysed by ESI‐MS. In all cases, the original organometallic cation was identified as the major Fe‐containing compound in solution (Figures S33‐S40). Concerning the protein scaffold, the only identified adduct from the interaction with [2–3]^+ was the methylated derivative, which was also checked by HPLC separation (Figure S41). The expected diiron counterparts, that is, 1A–H, could not be detected possibly due to their water insolubility. The [lysozyme+Me^+] to [lysozyme] ratios, calculated on extracted ion chromatograms after protein peak reconstruction, are reported in Table 4. […] Methylation is a common post‐translational modification of protein/enzymes (methyltransferase enzymes) but it has also been observed as a result of the interaction of proteins with various electrophiles.[37]
Lysozyme from chicken egg white (M=14 300 Da, 62971 Sigma‐Aldrich) was stored at 4 °C as received. A stock solution was prepared by dissolving the powder protein (125 μM) and NH4OAc (1.25×10^−2 M)[56] in HPLC water and was immediately used. Stock solutions of diiron complexes (c Fe2 =1×10^−3 M) were prepared by dissolving the selected compound in DMSO (0.25 mL) or MeOH (0.7 mL; used only for [4G]BF4), then diluting with HPLC water up to 5.0 mL total volume. Next, aliquots of the Fe (0.50 mL) and lysozyme (2.0 mL) stock solutions were mixed and the final solution (Fe2 200 μM, lysozyme 100 μM, NH4OAc 10 mM; 1 % DMSO) was kept at 37 °C for 24 h. The resulting suspensions were centrifuged (RCF 805, 5 min; Hettich EBA 8G) to separate the orange‐brown precipitate. A blank solution (lysozyme only) was prepared and treated by the same procedure. Next, samples were diluted 1 : 20 (v/v) with a water/MeCN (1 : 1, v/v) solution containing 1 % formic acid and analysed by HPLC‐MS and flow injection MS. For HPLC analyses, elution was conducted with a MeCN/water linear gradient (90 : 10 to 5 : 95 v/v over 60 min), containing 0.05 % trifluoroacetic acid. The following compounds were identified by their MS pattern: [2A]^+ (t R=18.0 min), [2B]^+ (t R=13.8 min), [2C]^+ (t R=18.8 min), [2D]^+ (t R=17.0 min), [2E]^+ (t R=18.3 min), [2F]^+ (t R=9.7 min), [3F]^+ (t R=13.1 min), [4G]^+ (t R=23.0 min), [5H]^+ (t R=24.3 min), lysozyme‐CH3 (t R=21.0 min), lysozyme (t R=21.6 min). In all cases, the starting organometallic cation was identified as the major Fe‐containing compound in solution. Protein peaks pattern were obtained following peak reconstruction. Peak integrals for lysozyme and methyl lysozyme were calculated from the extracted ion chromatograms from the flow injection MS analysis (Table 4).

T1 sequence (P00698 19-147): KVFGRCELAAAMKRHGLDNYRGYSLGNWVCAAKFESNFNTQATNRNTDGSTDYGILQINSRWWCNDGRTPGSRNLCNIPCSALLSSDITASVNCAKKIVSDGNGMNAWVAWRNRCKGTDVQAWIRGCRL

| Substance | % starting material (24 h) [1] [%] | Reaction with lysozyme [3] | % Lysozyme methylation (alkylation) [3] | IC50 [2] [µM] | SI (selectivity index) [2] |
| --- | --- | --- | --- | --- | --- |
| [Fe2Cp2(CO)2(μ‐CO){μ‐CNBn2}]X [[5H]CF3SO3] | 75 | did not react with lysozyme | 0 %^[b] | 98.3 ± 4.2 | 2.8 |
| [Fe2Cp2(CO)2(μ‐CO){μ‐CNMe(C6H11)}]X [[2C]CF3SO3] | 85 | – | 50% | 62.5 ± 4.9 | 3.6 |
| [Fe2Cp2(CO)2(μ‐CO){μ‐CNMe(4‐C6H4OMe)}]CF3SO3 [[2D]CF3SO3] | 77 | – | 31% | 94.3 ± 6.1 | 5.6 |
| [Fe2Cp2(CO)2(μ‐CO){μ‐CNEt(2‐naphthyl)}]BF4 [[4G]BF4] | 85 | did not react with lysozyme | 0 %^[b] | 89.5 ± 4.5 | 3.3 |

Second part, led by results:

| % starting material (24 h) [1] [%] | Reaction with lysozyme [3] | % Lysozyme methylation (alkylation) [3] | Substance | IC50 [2] [µM] | SI (selectivity index) [2] |
| --- | --- | --- | --- | --- | --- |
| 88 | – | 49% | [Fe2Cp2(CO)2(μ‐CO){μ‐CNMe(CH2PO3Et2)}]X [[2B]BF4] | > 100 | – |
| – | – | 47% | [Fe2Cp2(CO)2(μ‐CO){μ‐CNMe(CH2CHCH2)}]X [[3F]CF3SO3] | > 100 | – |
| 86 | – | 45% | [Fe2Cp2(CO)2(μ‐CO){μ‐CNMe(1H‐indol‐6‐yl)}]CF3SO3 [[2A]CF3SO3] | 136 ± 6.4 | 2.3 |
